For 34 molecules, chromatographic logP and pest or weed control results are on record in patent US8324390B2, “Tetrazole-substituted anthranilamides as pesticides” (Bayer CropScience AG, priority 2008, dated 2012).

Data set [1] is described as follows: log P determination by HPLC (EEC Directive 79/831 Annex V.A8). It is filed as physicochemical. The procedure:
The measurements were carried out using an Agilent 1100 LC system with a 50*4.6 Zorbax Eclipse C18 1.8 μm column (oven temperature 55° C., flow rate 2.0 ml/min).
The following mobile phases were used:
Mobile phase A: acetonitrile+1000 μl of formic acid/l
Mobile phase B: Millipore water+900 μl of formic acid/l

In data set [2] the test system is caterpillars of the armyworm (Spodoptera frugiperda). Put plainly: Spodoptera frugiperda test (SPODFR spray treatment). Particulars: Spodoptera frugiperda, foliar, read-out: effect in % (caterpillars killed). In kind it is in vivo. The source says:
Solvent: 78.0 parts by weight of acetone

In data set [3] the test system is larvae of the mustard beetle (Phaedon cochleariae). Put plainly: Phaedon test (PHAECO spray treatment). The note with it: Phaedon cochleariae, in Brassica rapa, foliar, read-out: effect in % (beetle larvae killed).
Where [4] appears, read: by HPLC according to EEC Directive 79/831 Annex V.A8, read-out: log P.

Where two headings read alike, the source gives them in different places.

`O=C(NC1CC1)c1cc(Cl)cc(Cl)c1NC(=O)c1cc(Cn2nnc(C(F)(F)F)n2)nn1-c1ncccc1Cl` [Example 57]: in data set [1] (log P), the chromatographic logP was 3.18. Further, the pest or weed control at 100 g/ha in data set [2] (in Zea mays) and in data set [3] was not below 80% each time.

Regarding `CCNC(=O)c1cc(Cl)cc(Cl)c1NC(=O)c1cc(Cn2nnc(C(F)(F)F)n2)nn1-c1ncccc1Cl` [Example 58], the chromatographic logP in data set [1] (log P) was determined as 3.17. Besides, the pest or weed control at 100 g/ha in data set [2] (in Zea mays) and in data set [3] was not below 80% throughout.

Consider `CC(C)NC(=O)c1cc(Cl)cc(Cl)c1NC(=O)c1cc(Cn2nnc(C(F)(F)F)n2)nn1-c1ncccc1Cl` [Example 61], for which the chromatographic logP in data set [1] (log P) was determined as 3.41. In addition, the pest or weed control at 100 g/ha in data set [2] (in Zea mays) and in data set [3] was not below 80% throughout.

`O=C(NC1CCC1)c1cc(Cl)cc(Cl)c1NC(=O)c1cc(Cn2nnc(C(F)(F)F)n2)nn1-c1ncccc1Cl` [Example 62]: in data set [1] (log P), the chromatographic logP stood at 3.51. Also, the pest or weed control at 100 g/ha in data set [2] (in Zea mays) and in data set [3] was not below 80% throughout.

The molecule `O=C(NCC1CC1)c1cc(Cl)cc(Cl)c1NC(=O)c1cc(Cn2nnc(C(F)(F)F)n2)nn1-c1ncccc1Cl` [Example 63] registered a chromatographic logP in data set [1] (log P) of 3.47. The pest or weed control at 100 g/ha in data set [2] (in Zea mays) and in data set [3] was not below 80% throughout.

Take `CCNC(=O)c1cc(I)cc(C)c1NC(=O)c1cc(Cn2nnc(C(F)(F)F)n2)nn1-c1ncccc1Cl` [Example 66]: the chromatographic logP in data set [1] (log P) is 3.47. Besides, the pest or weed control at 100 g/ha in data set [2] (in Zea mays) and in data set [3] was not below 80% each time.

In the case of `Cc1cc(I)cc(C(=O)NC(C)C2CC2)c1NC(=O)c1cc(Cn2nnc(C(F)(F)F)n2)nn1-c1ncccc1Cl` (stereo not drawn) [Example 68], the chromatographic logP in data set [1] (log P) is 4.01. Besides, the pest or weed control at 100 g/ha in data set [2] (in Zea mays) and in data set [3] was not below 80% in each case.

For the molecule `Cc1cc(I)cc(C(=O)NC2CC2)c1NC(=O)c1cc(Cn2nnc(C(F)(F)F)n2)nn1-c1ncccc1Cl` [Example 69], the chromatographic logP in data set [1] (log P) amounted to 3.46. The pest or weed control at 100 g/ha in data set [2] (in Zea mays) and in data set [3] was not below 80% in each case.

In data set [1] (log P), `Cc1cc(I)cc(C(=O)NC(C)C)c1NC(=O)c1cc(Cn2nnc(C(F)(F)F)n2)nn1-c1ncccc1Cl` [Example 71] came in with a chromatographic logP of 3.73. Moreover, the pest or weed control at 100 g/ha in data set [2] (in Zea mays) and in data set [3] was not below 80% each time.

The molecule `Cc1cc(I)cc(C(=O)NCC2CC2)c1NC(=O)c1cc(Cn2nnc(C(F)(F)F)n2)nn1-c1ncccc1Cl` [Example 73] showed a chromatographic logP in data set [1] (log P) of 3.78. In addition, the pest or weed control at 100 g/ha in data set [2] (in Zea mays) and in data set [3] was not below 80% throughout.

The molecule `Cc1cc(C)c(NC(=O)c2cc(Cn3nnc(C(F)(F)F)n3)nn2-c2ncccc2Cl)c(C(=O)NC2CCC2)c1` [Example 84] displayed a chromatographic logP in data set [1] (log P) of 3.42. For the same molecule, the pest or weed control at 100 g/ha in data set [2] (in Zea mays) and in data set [3] was not below 80% throughout.

Molecule `Cc1cc(C)c(NC(=O)c2cc(Cn3nnc(C(F)(F)F)n3)nn2-c2ncccc2Cl)c(C(=O)NCC#N)c1` [Example 85] registered a chromatographic logP in data set [1] (log P) of 2.83. Besides, the pest or weed control at 100 g/ha in data set [2] (in Zea mays) and in data set [3] was not below 80% throughout.

On to `Cc1cc(C#N)cc(C(=O)NC(C2CC2)C2CC2)c1NC(=O)c1cc(Cn2nnc(C(F)(F)F)n2)nn1-c1ncccc1Cl` [Example 87], for which the chromatographic logP in data set [1] (log P) was found to be 3.65. The pest or weed control at 100 g/ha in data set [2] (in Zea mays) and in data set [3] was not below 80% each time.

In turn, `Cc1cc(C#N)cc(C(=O)NCC2CC2(Cl)Cl)c1NC(=O)c1cc(Cn2nnc(C(F)(F)F)n2)nn1-c1ncccc1Cl` (stereo not drawn) [Example 88] gave a chromatographic logP in data set [1] (log P) of 3.5. Also, the pest or weed control at 100 g/ha in data set [2] (in Zea mays) and in data set [3] was not below 80% in each case.

Molecule `Cc1cc(C#N)cc(C(=O)NCc2ccoc2)c1NC(=O)c1cc(Cn2nnc(C(F)(F)F)n2)nn1-c1ncccc1Cl` [Example 99] showed a chromatographic logP in data set [1] (log P) of 3.09. Further, the pest or weed control at 100 g/ha in data set [2] (in Zea mays) and in data set [3] was not below 80% throughout.

In data set [1] (log P), `Cc1cc(C#N)cc(C(=O)NC(C)(C)C)c1NC(=O)c1cc(Cn2nnc(C(C)(C)C)n2)nn1-c1ncccc1Cl` [Example 100] showed a chromatographic logP of 3.44. The pest or weed control at 100 g/ha in data set [2] (in Zea mays) and in data set [3] was not below 80% throughout.

Turning to `CNC(=O)c1cc(C#N)cc(C)c1NC(=O)c1cc(Cn2nnc(C(C)(C)C)n2)nn1-c1ncccc1Cl` [Example 101], the chromatographic logP in data set [1] (log P) was 2.62. Besides, the pest or weed control at 100 g/ha in data set [2] (in Zea mays) and in data set [3] was not below 80% in each case.

The molecule `CNC(=O)c1cc(Cl)cc(C)c1NC(=O)c1cc(Cn2nnc(C(C)(C)C)n2)nn1-c1ncccc1Cl` [Example 103] gave a chromatographic logP in data set [1] (log P) of 3.02. The pest or weed control at 100 g/ha in data set [2] (in Zea mays) and in data set [3] was not below 80% throughout.

As for `Cc1cc(Cl)cc(C(=O)NC(C)(C)C)c1NC(=O)c1cc(Cn2nnc(C(F)(F)C(F)(F)C(F)(F)F)n2)nn1-c1ncccc1Cl` [Example 107], the chromatographic logP in data set [1] (setting [4]) turned out to be 4.6. Besides, the pest or weed control at 100 g/ha in data set [2] (in Zea mays) and in data set [3] was not below 80% throughout.

For `Cc1cc(C#N)cc(C(=O)NC(C)(C)C)c1NC(=O)c1cc(Cn2nnc(C(F)(F)C(F)(F)C(F)(F)F)n2)nn1-c1ncccc1Cl` [Example 108], the chromatographic logP in data set [1] (setting [4]) was 4.16. The pest or weed control at 100 g/ha in data set [2] (in Zea mays) and in data set [3] was not below 80% each time.

Take `Cc1cc(I)cc(C(=O)NC(C)C)c1NC(=O)c1cc(Cn2nnc(C(F)(F)C(F)(F)C(F)(F)F)n2)nn1-c1ncccc1Cl` [Example 109]: the chromatographic logP in data set [1] (setting [4]) amounted to 4.48. The pest or weed control at 100 g/ha in data set [2] (in Zea mays) and in data set [3] was not below 80% each time.

As to `Cc1cc(I)cc(C(N)=O)c1NC(=O)c1cc(Cn2nnc(C(F)(F)C(F)(F)C(F)(F)F)n2)nn1-c1ncccc1Cl` [Example 110], in data set [1] (setting [4]), the chromatographic logP stood at 3.7. Also, the pest or weed control at 100 g/ha in data set [2] (in Zea mays) and in data set [3] was not below 80% throughout.

For the molecule `Cc1cc(I)cc(C(=O)NC2CC2)c1NC(=O)c1cc(Cn2nnc(C(F)(F)C(F)(F)C(F)(F)F)n2)nn1-c1ncccc1Cl` [Example 111], in data set [1] (setting [4]), the chromatographic logP stood at 4.23. Besides, the pest or weed control at 100 g/ha in data set [2] (in Zea mays) and in data set [3] was not below 80% throughout.

In the case of `CNC(=O)c1cc(I)cc(C)c1NC(=O)c1cc(Cn2nnc(C(F)(F)C(F)(F)C(F)(F)F)n2)nn1-c1ncccc1Cl` [Example 112], in data set [1] (setting [4]), the chromatographic logP was found to be 3.99. Besides, the pest or weed control at 100 g/ha in data set [2] (in Zea mays) and in data set [3] was not below 80% in each case.

`Cc1cc(F)cc(C(=O)NC(C)(C)C)c1NC(=O)c1cc(Cn2nnc(C(F)(F)F)n2)nn1-c1ncccc1Cl` [Example 115] registered a chromatographic logP in data set [1] (log P) of 3.51. Further, the pest or weed control at 100 g/ha in data set [2] (in Zea mays) and in data set [3] was not below 80% each time.

As to `Cc1cc(C#N)cc(C(=O)NCC(C)(C)CF)c1NC(=O)c1cc(Cn2nnc(C(F)(F)F)n2)nn1-c1ncccc1Cl` [Example 116], the chromatographic logP in data set [1] (log P) was 3.35. The pest or weed control at 100 g/ha in data set [2] (in Zea mays) and in data set [3] was not below 80% throughout.

For `CCC(COC(F)(F)F)NC(=O)c1cc(C#N)cc(C)c1NC(=O)c1cc(Cn2nnc(C(F)(F)F)n2)nn1-c1ncccc1Cl` (stereo not drawn) [Example 117], in data set [1] (reversed-phase HPLC, Zorbax Eclipse C18 column, by HPLC according to EEC Directive 79/831 Annex V.A8, read-out: log P), the chromatographic logP was 3.74. For the same molecule, the pest or weed control at 100 g/ha in data set [2] (application rate 100 g/ha, maize leaf discs) is not below 80%; in data set [3], not below 80%.

`Cc1cc(C)c(NC(=O)c2cc(Cn3nnc(C(F)(F)F)n3)nn2-c2ncccc2Cl)c(C(=O)NC2CC2)c1` [Example 119]: the chromatographic logP in data set [1] (log P) is 3.04. In addition, the pest or weed control at 100 g/ha in data set [2] (in Zea mays) and in data set [3] was not below 80% each time.

In the case of `Cc1cc(I)cc(C(=O)NC(C)(C)C)c1NC(=O)c1cc(Cn2nnc(C(F)(F)C(F)(F)C(F)(F)F)n2)nn1-c1ncccc1Cl` [Example 121], the chromatographic logP in data set [1] (setting [4]) turned out to be 4.86. Moreover, the pest or weed control at 100 g/ha in data set [2] (in Zea mays) and in data set [3] was not below 80% each time.

As to `Cc1cc(C#N)cc(C(=O)NCCCN)c1NC(=O)c1cc(Cn2nnc(C(F)(F)F)n2)nn1-c1ncccc1Cl` [Example 124], in data set [1] (log P), the chromatographic logP is 1.63. For the same molecule, the pest or weed control at 100 g/ha in data set [2] (in Zea mays) and in data set [3] was not below 80% throughout.

Molecule `CNC(=O)c1cc(Cl)cc(C)c1NC(=O)c1cc(Cn2nnc(C(F)(F)C(F)(F)F)n2)nn1-c1ncccc1Cl` [Example 125] registered a chromatographic logP in data set [1] (log P) of 3.39. Further, the pest or weed control at 100 g/ha in data set [2] (in Zea mays) and in data set [3] was not below 80% each time.

In data set [1] (log P), `Cc1cc(Cl)cc(C(=O)NC(C)C2CC2)c1NC(=O)c1cc(Cn2nnc(C(F)(F)C(F)(F)F)n2)nn1-c1ncccc1Cl` (stereo not drawn) [Example 126] displayed a chromatographic logP of 4.25. The pest or weed control at 100 g/ha in data set [2] (in Zea mays) and in data set [3] was not below 80% in each case.

`Cc1cc(Cl)cc(C(=O)NC2CC2)c1NC(=O)c1cc(Cn2nnc(C(F)(F)C(F)(F)F)n2)nn1-c1ncccc1Cl` [Example 127] had a chromatographic logP in data set [1] (log P) of 3.7. Also, the pest or weed control at 100 g/ha in data set [2] (in Zea mays) and in data set [3] was not below 80% throughout.

Turning to `CCNC(=O)c1cc(Cl)cc(C)c1NC(=O)c1cc(Cn2nnc(C(F)(F)C(F)(F)F)n2)nn1-c1ncccc1Cl` [Example 128], the chromatographic logP in data set [1] (log P) is 3.65. Moreover, the pest or weed control at 100 g/ha in data set [2] (in Zea mays) and in data set [3] was not below 80% in each case.
